Assay results: patent US12486489B2, “Culture medium for testing drug resistance of H.pylori as well as preparation method and use thereof” (priority 2022, dated 2025)

Columns and labels:
[1] = system: H. pylori; assay: Effects of NiCl2 on H. pylori on culture medium (50 mL Colombian culture medium with 80 mg urea and 0.4 mg phenol red); assay type: cell-based, Helicobacter pylori; design: key to bacteria growth and discoloration: +: refers to a good bacteria growth after 36 hours of culture, with a discoloration; ++: refers to a good bacteria growth after 36 hours of culture, with an obvious discoloration; conditions: for bacteria growth and discoloration: 36 hours of culture
[2] = system: H. pylori; assay: Effects of urea and phenol red on H. pylori on Columbia culture medium; assay type: cell-based, Helicobacter pylori; conditions: for bacterial growth: 1 × 10^6 CFU/mL; for effect on the growth of H. pylori: strains G27 and 287, 72 hours

Q: Which results are given for `[Cl][Ni][Cl]` [NiCl2, nickel chloride]?
A: recognition of the discoloration reaction ([1]; NiCl2 100 μmol/L): has reached its maximum; sensitivity and identification of the discoloration reaction ([1]; NiCl2 1 μMol/L to 200 μMol/L, 80 mg urea, 0.4 mg phenol red, pH 7.15 to 7.35): the sensitivity and identification of the discoloration reaction are further improved; bacteria growth and discoloration ([1]; strain 159, NiCl2 1 μmol/L): +; bacteria growth and discoloration ([1]; strain 159, NiCl2 10 μmol/L): +; bacteria growth and discoloration ([1]; strain 159, NiCl2 100 μmol/L): ++; bacteria growth and discoloration ([1]; strain 161, NiCl2 1 μmol/L): +; bacteria growth and discoloration ([1]; strain 161, NiCl2 10 μmol/L): +; bacteria growth and discoloration ([1]; strain 161, NiCl2 100 μmol/L): ++; bacteria growth and discoloration ([1]; strain 162, NiCl2 1 μmol/L): +; bacteria growth and discoloration ([1]; strain 162, NiCl2 10 μmol/L): +; bacteria growth and discoloration ([1]; strain 162, NiCl2 100 μmol/L): ++; bacteria growth and discoloration ([1]; strain 163, NiCl2 1 μmol/L): +; bacteria growth and discoloration ([1]; strain 163, NiCl2 10 μmol/L): +; bacteria growth and discoloration ([1]; strain 163, NiCl2 100 μmol/L): ++; bacteria growth and discoloration ([1]; strain 286, NiCl2 1 μmol/L): +; bacteria growth and discoloration ([1]; strain 286, NiCl2 10 μmol/L): +; bacteria growth and discoloration ([1]; strain 286, NiCl2 100 μmol/L): ++; bacteria growth and discoloration ([1]; strain 287, NiCl2 1 μmol/L): +; bacteria growth and discoloration ([1]; strain 287, NiCl2 10 μmol/L): +; bacteria growth and discoloration ([1]; strain 287, NiCl2 100 μmol/L): ++; bacteria growth and discoloration ([1]; strain 289, NiCl2 1 μmol/L): +; bacteria growth and discoloration ([1]; strain 289, NiCl2 10 μmol/L): +; bacteria growth and discoloration ([1]; strain 289, NiCl2 100 μmol/L): ++; bacteria growth and discoloration ([1]; strain 290, NiCl2 1 μmol/L): +; bacteria growth and discoloration ([1]; strain 290, NiCl2 10 μmol/L): +; bacteria growth and discoloration ([1]; strain 290, NiCl2 100 μmol/L): ++; bacteria growth and discoloration ([1]; strain 26695, NiCl2 1 μmol/L): +; bacteria growth and discoloration ([1]; strain 26695, NiCl2 10 μmol/L): +; bacteria growth and discoloration ([1]; strain 26695, NiCl2 100 μmol/L): ++; bacteria growth and discoloration ([1]; strain G27, NiCl2 1 μmol/L): +; bacteria growth and discoloration ([1]; strain G27, NiCl2 10 μmol/L): +; bacteria growth and discoloration ([1]; strain G27, NiCl2 100 μmol/L): ++

Q: For `NC(N)=O` [Urea, urea], which “maximum value of added urea without affecting the growth of H. pylori” value ([2]; in 50 mL Colombian culture medium) is on record?
A: 80 mg

Q: And the bacterial growth ([2]; strain 159, urea 60 mg)?
A: ++

Q: And the bacterial growth ([2]; strain 159, urea 80 mg)?
A: ++

Q: And the bacterial growth ([2]; strain 159, urea 100 mg)?
A: +

Q: And the bacterial growth ([2]; strain 159, urea 120 mg)?
A: +

Q: What about the bacterial growth ([2]; strain 159, urea 240 mg) of the same compound?
A: −

Q: What about the bacterial growth ([2]; strain 161, urea 60 mg) of the same compound?
A: ++

Q: What about the bacterial growth ([2]; strain 161, urea 80 mg) of the same compound?
A: ++

Q: What about the bacterial growth ([2]; strain 161, urea 100 mg) of the same compound?
A: +

Q: What about the bacterial growth ([2]; strain 161, urea 120 mg) of the same compound?
A: +

Q: What about the bacterial growth ([2]; strain 161, urea 240 mg) of the same compound?
A: −

Q: And the bacterial growth ([2]; strain 162, urea 60 mg)?
A: ++

Q: What about the bacterial growth ([2]; strain 162, urea 80 mg) of the same compound?
A: ++

Q: What about the bacterial growth ([2]; strain 162, urea 100 mg) of the same compound?
A: +

Q: What about the bacterial growth ([2]; strain 162, urea 120 mg) of the same compound?
A: +

Q: And the bacterial growth ([2]; strain 162, urea 240 mg)?
A: −

Q: And the bacterial growth ([2]; strain 163, urea 60 mg)?
A: ++

Q: What about the bacterial growth ([2]; strain 163, urea 80 mg) of the same compound?
A: ++

Q: And the bacterial growth ([2]; strain 163, urea 100 mg)?
A: +

Q: And the bacterial growth ([2]; strain 163, urea 120 mg)?
A: +

Q: And the bacterial growth ([2]; strain 163, urea 240 mg)?
A: −

Q: And the bacterial growth ([2]; strain 286, urea 60 mg)?
A: ++

Q: And the bacterial growth ([2]; strain 286, urea 80 mg)?
A: ++

Q: What about the bacterial growth ([2]; strain 286, urea 100 mg) of the same compound?
A: +

Q: What about the bacterial growth ([2]; strain 286, urea 120 mg) of the same compound?
A: +

Q: What about the bacterial growth ([2]; strain 286, urea 240 mg) of the same compound?
A: −

Q: What about the bacterial growth ([2]; strain 287, urea 60 mg) of the same compound?
A: ++

Q: And the bacterial growth ([2]; strain 287, urea 80 mg)?
A: ++

Q: And the bacterial growth ([2]; strain 287, urea 100 mg)?
A: +

Q: What about the bacterial growth ([2]; strain 287, urea 120 mg) of the same compound?
A: +

Q: What about the bacterial growth ([2]; strain 287, urea 240 mg) of the same compound?
A: −

Q: What about the bacterial growth ([2]; strain 289, urea 60 mg) of the same compound?
A: ++

Q: What about the bacterial growth ([2]; strain 289, urea 80 mg) of the same compound?
A: ++

Q: What about the bacterial growth ([2]; strain 289, urea 100 mg) of the same compound?
A: +

Q: And the bacterial growth ([2]; strain 289, urea 120 mg)?
A: +

Q: What about the bacterial growth ([2]; strain 289, urea 240 mg) of the same compound?
A: −

Q: And the bacterial growth ([2]; strain 290, urea 60 mg)?
A: ++

Q: What about the bacterial growth ([2]; strain 290, urea 80 mg) of the same compound?
A: ++

Q: What about the bacterial growth ([2]; strain 290, urea 100 mg) of the same compound?
A: +

Q: And the bacterial growth ([2]; strain 290, urea 120 mg)?
A: +

Q: What about the bacterial growth ([2]; strain 290, urea 240 mg) of the same compound?
A: −

Q: What about the bacterial growth ([2]; strain 26695, urea 60 mg) of the same compound?
A: ++

Q: What about the bacterial growth ([2]; strain 26695, urea 80 mg) of the same compound?
A: ++

Q: What about the bacterial growth ([2]; strain 26695, urea 100 mg) of the same compound?
A: +

Q: And the bacterial growth ([2]; strain 26695, urea 120 mg)?
A: +

Q: And the bacterial growth ([2]; strain 26695, urea 240 mg)?
A: −

Q: What about the bacterial growth ([2]; strain G27, urea 60 mg) of the same compound?
A: ++

Q: And the bacterial growth ([2]; strain G27, urea 80 mg)?
A: ++

Q: What about the bacterial growth ([2]; strain G27, urea 100 mg) of the same compound?
A: +

Q: What about the bacterial growth ([2]; strain G27, urea 120 mg) of the same compound?
A: +

Q: And the bacterial growth ([2]; strain G27, urea 240 mg)?
A: −

Q: And the “effect on the growth of H. pylori” value ([2]; urea 60 mg in 50 mL Colombian culture medium)?
A: no effect on the growth of H. pylori

Q: What about the “effect on the growth of H. pylori” value ([2]; urea 120 mg to 240 mg in 50 mL Colombian culture medium) of the same compound?
A: the growth is not good
